This note sets out measurements from ChEMBL document CHEMBL1147915, “Carbonic anhydrase inhibitors. Inhibition of isoforms I, II, IV, VA, VII, IX, and XIV with sulfonamides incorporating fructopyranose-thioureido tails” (Bioorg Med Chem Lett, 2007).

For experiment [1], the target named is Carbonic anhydrase 9 (Homo sapiens, UniProt Q16790).
Description: Inhibition of human recombinant CA9 after 15 mins by CO2 hydration stopped flow assay
The subject of experiment [2] is Mus musculus. The experiment in a line: Anticonvulsant activity in OF1 mouse at 50 mg/kg, ip after 2 hrs by MES test. Type of experiment: functional. The conditions noted are these: route intraperitoneal.
Experiment [3] deals with Mus musculus. In words: Anticonvulsant activity in OF1 mouse at 30 mg/kg, ip after 2 hrs by MES test. It counts as functional. The conditions noted are these: route intraperitoneal.

As usually defined, the Ki is the equilibrium dissociation constant of an inhibitor or competing ligand from its target. A high value points to weaker binding.

Turning to `CC1(C)O[C@@H]2[C@@H](CO[C@@]3(CNC(=S)Nc4ccc(S(N)(=O)=O)cc4F)OC(C)(C)O[C@@H]23)O1`, in experiment [1], the affinity corresponds to a Ki of 0.11 µM. Also, the Activity in experiment [2] is 87.5%. In experiment [1], `CC1(C)O[C@@H]2[C@@H](CO[C@@]3(CNC(=S)Nc4cccc(S(N)(=O)=O)c4)OC(C)(C)O[C@@H]23)O1` displayed a Ki of 4.5 µM. In experiment [2], this compound registered an Activity of 0%. In experiment [2], `CC1(C)O[C@@H]2[C@@H](CO[C@@]3(CNC(=S)NCCc4ccc(S(N)(=O)=O)cc4)OC(C)(C)O[C@@H]23)O1` gave an Activity of 0%.

In experiment [1], `CC1(C)O[C@@H]2[C@@H](CO[C@@]3(CNC(=S)Nc4ccc(S(N)(=O)=O)cc4)OC(C)(C)O[C@@H]23)O1` showed a Ki of 0.082 µM. In experiment [2], this compound had an Activity of 0%. In experiment [2], `CC1(C)O[C@@H]2[C@@H](CO[C@@]3(COS(N)(=O)=O)OC(C)(C)O[C@@H]23)O1` [TOPIRAMATE] returned an Activity of 68.75%. `CC1(C)O[C@@H]2[C@@H](CO[C@@]3(CNC(=S)Nc4ccc(S(=O)(=O)NCc5ccc(S(N)(=O)=O)cc5)cc4F)OC(C)(C)O[C@@H]23)O1` yielded a Ki in experiment [1] of 0.011 µM. Also, the Activity in experiment [2] was 20%. In the case of `CC1(C)O[C@@H]2[C@@H](CO[C@@]3(CNC(=S)Nc4ccc(S(N)(=O)=O)cc4Cl)OC(C)(C)O[C@@H]23)O1`, the Ki in experiment [1] is 0.134 µM. The same compound had an Activity in experiment [2] of 0%. Compound `NC(=O)N1c2ccccc2C=Cc2ccccc21` [CARBAMAZEPINE] came in with an Activity in experiment [3] of 100%.

As to `CC1(C)O[C@@H]2[C@@H](CO[C@@]3(CNC(=S)Nc4ccc(S(=O)(=O)Nc5nnc(S(N)(=O)=O)s5)cc4F)OC(C)(C)O[C@@H]23)O1`, the inhibitory constant (Ki) in experiment [1] was 0.076 µM. The Activity in experiment [2] amounted to 0%. With `O=C1NC(=O)C(c2ccccc2)(c2ccccc2)N1` [PHENYTOIN], in experiment [3], the Activity turned out to be 100%.
